Assay results from patent US9388141B2, “Acylaminocycloalkyl compounds suitable for treating disorders that respond to modulation of dopamine D3 receptor” (AbbVie Deutschland GmbH & Co. KG, priority 2013, dated 2016).

Legend:
[1] = biological target: T1, human dopamine D2L receptors (long isoform) (Homo sapiens, UniProt P14416); test: Dopamine D2L receptor binding, [125I]-iodospiperone displacement; settings: selectivity ratio Ki (D2L)/Ki (D3)
T1 construct: expressed in transfected cells; host or cells: HEK-293
T1 sequence (P14416 whole entry, canonical isoform): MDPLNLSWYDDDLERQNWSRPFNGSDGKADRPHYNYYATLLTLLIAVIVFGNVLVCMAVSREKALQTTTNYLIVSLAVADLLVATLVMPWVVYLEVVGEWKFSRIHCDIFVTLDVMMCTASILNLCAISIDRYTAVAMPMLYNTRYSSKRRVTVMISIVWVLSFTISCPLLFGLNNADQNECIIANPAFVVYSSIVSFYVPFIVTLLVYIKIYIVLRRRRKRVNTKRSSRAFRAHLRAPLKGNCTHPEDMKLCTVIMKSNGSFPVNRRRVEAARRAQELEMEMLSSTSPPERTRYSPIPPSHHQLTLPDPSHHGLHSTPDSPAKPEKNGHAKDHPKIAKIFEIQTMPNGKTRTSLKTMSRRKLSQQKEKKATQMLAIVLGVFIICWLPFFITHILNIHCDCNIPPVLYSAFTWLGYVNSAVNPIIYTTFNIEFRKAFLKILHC
Procedure: (§1) The substance to be tested was either dissolved in methanol/Chremophor® (BASF SE) or in dimethyl sulfoxide and then diluted with water to the desired concentration.
(§2) Each assay mixture was run in triplicate. • The incubation buffer contained 50 mM tris, 120 mM NaCl, 5 mM KCl, 2 mM CaCl2, 2 mM MgCl2 and 0.1% bovine serum albumin, 10 μM quinolone and 0.1% ascorbic acid (prepared fresh daily). […] Each assay mixture was run in triplicate. • The incubation buffer contained 50 mM tris, 120 mM NaCl, 5 mM KCl, 2 mM CaCl2, 2 mM MgCl2 and 0.1% bovine serum albumin. The buffer was adjusted to pH 7.4 with HCl. c) Measurement and Analysis: • After having been incubated at 25° C. for 60 minutes, the assay mixtures were filtered through a Whatman GF/B glass fiber filter under vacuum using a cell collecting device. The filters were transferred to scintillation viols using a filter transfer system. After 4 ml of Ultima Gold® (Packard) have been added, the samples were shaken for one hour and the radioactivity was then counted in a Beta-Counter (Packard, Tricarb 2000 or 2200CA).

[2] = biological target: T2, human dopamine D3 receptors (Homo sapiens, UniProt P35462); test: Dopamine D3 receptor binding, [125I]-iodosulpride displacement; settings: membranes of HEK-293 cells with human D3 receptors, 0.1 nM [125I]-iodosulpride
T2 construct: expressed in transfected cells; host or cells: HEK-293
T2 sequence (P35462 whole entry): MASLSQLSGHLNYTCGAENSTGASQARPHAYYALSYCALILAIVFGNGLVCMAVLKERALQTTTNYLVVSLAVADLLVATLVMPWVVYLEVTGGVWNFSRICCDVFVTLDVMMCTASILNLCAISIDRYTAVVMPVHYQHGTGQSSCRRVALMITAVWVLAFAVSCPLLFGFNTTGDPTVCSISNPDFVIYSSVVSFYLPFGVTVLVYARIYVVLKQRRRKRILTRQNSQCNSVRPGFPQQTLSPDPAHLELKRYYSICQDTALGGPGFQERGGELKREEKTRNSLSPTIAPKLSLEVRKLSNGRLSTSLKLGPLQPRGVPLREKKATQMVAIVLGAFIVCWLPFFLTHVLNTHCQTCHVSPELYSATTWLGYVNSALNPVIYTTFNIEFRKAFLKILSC
Procedure: as §1, §2

[3] = Determination of the microsomal half-life / microsomal clearance; assay type: in vitro ADME; settings: human liver microsomes, 0.5 μM test substance, 0.25 mg microsomal protein/ml, pH 7.4, 37° C.
Procedure: The metabolic stability of the compounds of the invention was determined in the following assay.
The test substances were incubated in a concentration of 0.5 μM as follows:
0.5 μM test substance are preincubated together with liver microsomes from different species (from rat, human or other species) (0.25 mg of microsomal protein/ml) in 0.05 M potassium phosphate buffer of pH 7.4 in microtiter plates at 37° C. for 5 min. The reaction is started by adding NADPH (1 mg/mL). After 0, 5, 10, 15, 20 and 30 min, 50 μl aliquots are removed, and the reaction is immediately stopped and cooled with the same volume of acetonitrile. The samples are frozen until analyzed. The remaining concentration of undegraded test substance is determined by MSMS. The half-life (T1/2) is determined from the gradient of the signal of test substance/unit time plot, it being possible to calculate the half-life of the test substance, assuming first order kinetics, from the decrease in the concentration of the compound with time. The microsomal clearance (mCl) is calculated from mCl=1n2/T1/2/(content of microsomal protein in mg/ml)×1000 [[…]] (modified from references: Di, The Society for Biomoleculur Screening, 2003, 453-462; Obach, DMD, 1999 vol 27. N 11, 1350-1359).

SMILES | D2/D3, Ki (D2L)/Ki (D3) [1] | Ki [2] | Human mCl [3]
CC(C)c1cc(N2CCN(CC[C@H]3CC[C@H](NC(=O)[C@H]4CC[C@H](O)CC4)CC3)CC2)nc(C(C)(C)C)n1 [Compound 32, Trans-N-[trans-4-[2-[4-(2-tert-butyl-6-isopropyl-pyrimidin-4-yl)piperazin-1-yl]ethyl]cyclohexyl]-4-hydroxy-cyclohexanecarboxamide] | ++ (++>20) | < 0.01 µM | + (+: 20-120 μl min^−1 mg^−1)
CC(C)(C)c1nc(C(F)F)cc(N2CCN(CCC3CCC(NC(=O)C4CCC(O)CC4)CC3)CC2)n1 (stereo not drawn) [Compound 29, N-[4-[2-[4-[2-tert-butyl-6-(difluoromethyl)pyrimidin-4-yl]piperazin-1-yl]ethyl]cyclohexyl]-4-hydroxy-cyclohexanecarboxamide] | + (+>10) | < 0.01 µM | + (+: 20-120 μl min^−1 mg^−1)
COCCc1cc(N2CCN(CC[C@H]3CC[C@@H](NC(=O)[C@H]4CC[C@@H](O)CC4)CC3)CC2)nc(C(C)(C)C)n1 [Compound 5, Cis-N-[cis-4-[2-[4-[2-tert-butyl-6-(2-methoxyethyl)pyrimidin-4-yl]piperazin-1-yl]ethyl]cyclohexyl]-4-hydroxy-cyclohexanecarboxamide] | ++ (++>20) | < 0.05 µM | ∘ (∘: >120 μl min^−1 mg^−1)
COCCc1cc(N2CCN(CC[C@H]3CC[C@H](NC(=O)C4CC(O)(C(F)(F)F)C4)CC3)CC2)nc(C(C)(C)C)n1 (relative stereo) [Compound 25, N-[trans-4-[2-[4-[2-tert-butyl-6-(2-methoxyethyl)pyrimidin-4-yl]piperazin-1-yl]ethyl]cyclohexyl]-3-hydroxy-3-(trifluoromethyl)cyclobutanecarboxamide] | ++ (++>20) | < 0.01 µM | ∘ (∘: >120 μl min^−1 mg^−1)
CC(C)(C)c1cc(N2CCN(CC[C@H]3CC[C@H](NC(=O)[C@H]4CC[C@H](O)CC4)CC3)CC2)nc(C(C)(C)C)n1 [Compound 20, trans-N-[trans-4-[2-[4-(2,6-ditert-butylpyrimidin-4-yl)piperazin-1-yl]ethyl]cyclohexyl]-4-hydroxy-cyclohexanecarboxamide] | ++ (++>20) | < 0.01 µM | + (+: 20-120 μl min^−1 mg^−1)
COCCc1cc(N2CCN(CC[C@H]3CC[C@H](NC(=O)[C@H]4CC[C@@H](O)CC4)CC3)CC2)nc(C(C)(C)C)n1 [Compound 4, cis-N-[trans-4-[2-[4-[2-tert-butyl-6-(2-methoxyethyl)pyrimidin-4-yl]piperazin-1-yl]ethyl]cyclohexyl]-4-hydroxy-cyclohexanecarboxamide] | ++ (++>20) | < 0.01 µM | ∘ (∘: >120 μl min^−1 mg^−1)
COCCc1cc(N2CCN(CCC3CCC(NC(=O)C4CCC(O)CC4)CC3)C[C@H]2C)nc(C(C)(C)C)n1 (stereo partly drawn) [Compound 33, N-[4-[2-[(3R)-4-[2-tert-butyl-6-(2-methoxyethyl)pyrimidin-4-yl]-3-methyl-piperazin-1-yl]ethyl]cyclohexyl]-4-hydroxy-cyclohexanecarboxamide] | +++ (+++>50) | < 0.05 µM | + (+: 20-120 μl min^−1 mg^−1)
CC(C)(C)c1nc(C2CCC2)cc(N2CCN(CC[C@H]3C[C@H](NC(=O)[C@H]4C[C@H](O)C4)C3)CC2)n1.O=C(O)C(F)(F)F [Compound 39, trans-N-[trans-3-[2-[4-(2-tert-butyl-6-cyclobutyl-pyrimidin-4-yl)piperazin-1-yl]ethyl]cyclobutyl]-3-hydroxy-cyclobutanecarboxamide; 2,2,2-trifluoroacetic acid] | +++ (+++>50) | < 0.01 µM | ++ (++: <20 μl min^−1 mg^−1)
COCCc1cc(N2CCN(CC[C@H]3CC[C@H](NC(=O)[C@H]4CC[C@H](O)CC4)CC3)C[C@H]2C)nc(C(C)(C)C)n1 [Compound 34, trans-N-[trans-4-[2-[(3R)-4-[2-tert-butyl-6-(2-methoxyethyl)pyrimidin-4-yl]-3-methyl-piperazin-1-yl]ethyl]cyclohexyl]-4-hydroxy-cyclohexanecarboxamide] | +++ (+++>50) | < 0.01 µM | + (+: 20-120 μl min^−1 mg^−1)
CC(C)(C)c1nc(C(F)F)cc(N2CCN(CC[C@H]3CC[C@@H](NC(=O)[C@H]4CC[C@H](O)CC4)CC3)CC2)n1 [Compound 30, Trans-N-[cis-4-[2-[4-[2-tert-butyl-6-(difluoromethyl)pyrimidin-4-yl]piperazin-1-yl]ethyl]cyclohexyl]-4-hydroxy-cyclohexanecarboxamide] | ++ (++>20) | < 0.01 µM | + (+: 20-120 μl min^−1 mg^−1)
COCCc1cc(N2CCN(CC[C@H]3C[C@@H](NC(=O)[C@H]4CC[C@H](O)CC4)C3)CC2)nc(C(C)(C)C)n1.O=C(O)C(F)(F)F [Compound 8, trans-N-[cis-3-[2-[4-[2-tert-butyl-6-(2-methoxyethyl)pyrimidin-4-yl]piperazin-1-yl]ethyl]cyclobutyl]-4-hydroxy-cyclohexanecarboxamide; 2,2,2-trifluoroacetic acid] | +++ (+++>50) | < 0.01 µM | + (+: 20-120 μl min^−1 mg^−1)
COCCc1cc(N2CCN(CC[C@H]3CC[C@@H](NC(=O)[C@H]4C[C@@H](O)C4)CC3)CC2)nc(C(C)(C)C)n1 [Compound 17, cis-N-[cis-4-[2-[4-[2-tert-butyl-6-(2-methoxyethyl)pyrimidin-4-yl]piperazin-1-yl]ethyl]cyclohexyl]-3-hydroxy-cyclobutanecarboxamide] | +++ (+++>50) | < 0.01 µM | ∘ (∘: >120 μl min^−1 mg^−1)
CC(C)(C)c1nc(C2CCC2)cc(N2CCN(CC[C@H]3CC[C@H](NC(=O)C4CC(O)(C(F)(F)F)C4)CC3)CC2)n1 (relative stereo) [Compound 19, N-[trans-4-[2-[4-(2-tert-butyl-6-cyclobutyl-pyrimidin-4-yl)piperazin-1-yl]ethyl]cyclohexyl]-3-hydroxy-3-(trifluoromethyl)cyclobutanecarboxamide] | + (+>10) | < 0.01 µM | + (+: 20-120 μl min^−1 mg^−1)
CC(C)(C)c1nc(C2CCC2)cc(N2CCN(CC[C@H]3C[C@H](NC(=O)[C@H]4CC[C@@H](O)CC4)C3)CC2)n1.O=C(O)C(F)(F)F [Compound 16, Cis-N-[trans-3-[2-[4-(2-tert-butyl-6-cyclobutyl-pyrimidin-4-yl)piperazin-1-yl]ethyl]cyclobutyl]-4-hydroxy-cyclohexanecarboxamide; 2,2,2-trifluoroacetic acid] | ++ (++>20) | < 0.01 µM | ∘ (∘: >120 μl min^−1 mg^−1)
COCCc1cc(N2CCN(CC[C@H]3CC[C@H](NC(=O)[C@H]4CC[C@H](OC)CC4)CC3)CC2)nc(C(C)(C)C)n1 [Compound 24, trans-N-[trans-4-[2-[4-[2-tert-butyl-6-(2-methoxyethyl)pyrimidin-4-yl]piperazin-1-yl]ethyl]cyclohexyl]-4-methoxy-cyclohexanecarboxamide] | ++ (++>20) | < 0.05 µM | ∘ (∘: >120 μl min^−1 mg^−1)
COCCc1cc(N2CCN(CC[C@H]3CC[C@H](NC(=O)[C@H]4C[C@@H](O)C4)CC3)CC2)nc(C(C)(C)C)n1 [Compound 18, cis-N-[trans-4-[2-[4-[2-tert-butyl-6-(2-methoxyethyl)pyrimidin-4-yl]piperazin-1-yl]ethyl]cyclohexyl]-3-hydroxy-cyclobutanecarboxamide] | +++ (+++>50) | < 0.01 µM | + (+: 20-120 μl min^−1 mg^−1)
